Laboratory results: paper PMC3534288 (BMC Biophysics, 2012)
Read-outs that look alike come from different tables or passages of the source. Each block holds one compound with its values, some of them ahead of it.

What was measured:
CA II = conditions: pH 7.0; read-out: observed Kis and Kds; cited from earlier work
[1] = sulfonamide group, 25°C; cited from earlier work
hCA XIII [2] = biological target: T1, hCA XIII (Homo sapiens, UniProt Q8N1Q1); experiment: Intrinsic binding parameters by dissection of binding-linked protonation reactions; conditions: deprotonated inhibitor anion to protonated zinc-bound water form, 25°C
T1 construct: made in house; host or cells: Escherichia coli
T1 sequence (Q8N1Q1 whole entry): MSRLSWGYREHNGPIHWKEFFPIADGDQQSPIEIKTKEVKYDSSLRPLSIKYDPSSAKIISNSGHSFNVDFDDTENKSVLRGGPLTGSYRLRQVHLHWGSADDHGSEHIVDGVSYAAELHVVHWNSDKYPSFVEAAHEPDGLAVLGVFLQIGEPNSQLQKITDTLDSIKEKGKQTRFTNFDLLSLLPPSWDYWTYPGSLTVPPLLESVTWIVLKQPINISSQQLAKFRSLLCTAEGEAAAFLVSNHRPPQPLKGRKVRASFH
Source text: Here we use the same formalism to dissect protonation reactions as previously described. The intrinsic binding constant is related to the observed binding constant and the fractions of active binding species:
(1) Kb=Kb_obs/fRSO2NH^−fCAZnH2O
Where the fractions deprotonated sulfonamide and protonated CA as a function of pH are:
(4) ΔbHintr=ΔbHobs−ninhΔb_proton_inhH−nCAΔb_proton_CAH+nΔb_proton_bufH
The intrinsic entropy of binding was obtained by subtracting Gibbs free energy from the enthalpy using standard thermodynamic equations. The intrinsic heat capacity of binding could be determined by carrying out all or part of ITC and TSA experiments at several temperatures.

hCA XIII [3] = biological target: T1, hCA XIII; experiment: Isothermal titration calorimetry (ITC) of inhibitor binding to hCA XIII, observed parameters
Protocol: ITC experiments were performed using a VP-ITC instrument (Microcal, Inc., GE-Healthcare, Northampton, MA, USA). For ligand-protein binding experiments 5–20 μM (usually 10) protein solution in the cell and 50–200 μM (usually 100) ligand solution in the syringe were used. A typical experiment consisted of 25–30 injections (usually 25), 10 μL each, with 3–5 min (usually 4 min) intervals between injections. Experiments were performed at different temperatures in various buffers containing 50 mM NaCl and 0.5-2% DMSO concentration. All experiments were repeated at least twice. For the determination of ligand binding at various pHs, the solution pH was carefully checked in the presence of protein and ligand, in the cell and syringe, respectively.

[4] = Protonation of inhibitor sulfonamide group (ITC titration with acid, pKa); type: physicochemical
Protocol: Dissection of contribution from inhibitor protonation requires a set of experiments with pure inhibitor in the absence of protein to determine the pKa and the enthalpy of inhibitor protonation. The deprotonation pKa could be determined by pH titration as previously explained. The enthalpy of protonation is determined by titrating alkaline solution of the inhibitor with acid. […] Pure crystalline inhibitor is in protonated electrostatically neutral form. Therefore, 1.5 equivalent of NaOH is added to the inhibitor solution to make it deprotonated. […] This enthalpy of the second transition is the enthalpy of interest.

Structure (SMILES): CS(N)(=O)=O [methanesulfonamide]
Kd (CA II): 300 µM

TΔbSintr (hCA XIII [2]): -2.13 kcal/mol | ΔbGintr (hCA XIII [2]): -9.92 kcal/mol | ΔbHintr (hCA XIII [2]): -12 kcal/mol | ΔbSintr (hCA XIII [2]): −29.8 J/(mol × K)
Structure (SMILES): CC(=O)Nc1nnc(S(N)(=O)=O)s1 [AZM, acetazolamide]
Ka [1]: 50 nM | TΔb_protonS [1]: 4.47 kcal/mol | pKa [1]: 7.30 | Δb_protonG [1]: -9.97 kcal/mol | Δb_protonH [1]: -5.5 kcal/mol | Δb_protonS [1]: 62.6 J/(mol × K)

net number of uptaken or released protons upon binding (hCA XIII [3]; pH 7.0, 25°C, slope of observed enthalpy versus buffer protonation enthalpy): approximately equal to zero | observed enthalpies of binding, span over pH and buffers (hCA XIII [3]; sodium phosphate and TRIS chloride buffers, 25°C, as a function of pH): −10 to −70 kJ/mol | TΔbSintr (hCA XIII [2]): 2.44 kcal/mol | ΔbGintr (hCA XIII [2]): -10.5 kcal/mol | ΔbHintr (hCA XIII [2]): -8.01 kcal/mol | ΔbSintr (hCA XIII [2]): 34.3 J/(mol × K)
Structure (SMILES): NS(=O)(=O)C(F)(F)F [TFMSA, trifluoromethanesulfonamide]

Structure (SMILES): CCOc1ccc2nc(S(N)(=O)=O)sc2c1 [EZA, ethoxzolamide]
pKa [1]: 8.0 | Δb_protonCp ([4]; slope of protonation enthalpy versus temperature): 88.7 J/(mol × K) | Ka ([4]; sulfonamide group, 25°C): 10 nM | TΔb_protonS ([4]; sulfonamide group, 25°C): 3.87 kcal/mol | Δb_protonG ([4]; sulfonamide group, 25°C): -10.9 kcal/mol | Δb_protonH ([4]; sulfonamide group, 25°C): -7.05 kcal/mol | Δb_protonS ([4]; sulfonamide group, 25°C): 54.2 J/(mol × K)
